{
  "source": "patent US10849867B2",
  "about": "“Methods and compositions for treating conditions associated with an abnormal inflammatory response” (First Wave Bio, Inc., priority 2015, dated 2020)",
  "key": {"[1]": {"tested_on": "human LPMCs T cells", "experiment": "Pro-inflammatory cytokine producing LPMC T cells, intracellular staining flow cytometry (Example 10)", "format": "cell-based", "conditions": "5 μM, 24 h, relative to vehicle only negative control", "description": "Model: Lamina propria mononuclear cells (LPMC) in the human intestine are comprised in part by T cells which mediate pathological processes including inflammatory bowel disease. LPMCs can be isolated from human intestine tissue biopsies. After isolation […] cells remain viable ex vivo under appropriate culture conditions for periods of time that allow ex vivo experiments. These cells can be used to investigate if test agents affect their production of pro-inflammatory cytokines including interferon-gamma (IFN), tumor necrosis factor-alpha (TNF) and interleukin 17A (IL-17A), to determine if a test agent affects the pro-inflammatory cytokines that mediate inflammatory bowel disease, including UC. Cell Isolation and Culture: Cells were obtained from colon biopsy specimens of a human from areas with moderate to severe UC. For the isolation of lamina propria mononuclear […] specimens were initially washed in Hank's balanced salt solution (HBSS) then cut into 0.5-cm pieces, and incubated with stirring in pre-warmed HBSS containing 1 mM DTT at 37° C. for 15 minutes. The supernatant was removed and the sample washed with stirring with HBSS for 5 minutes twice. Samples were incubated with stirring in pre-warmed HBSS containing 5 mM EDTA for 30 minutes. The supernatant was removed and the sample washed with stirring with HBSS for 5 minutes three times. The tissue was then digested further in RPMI 1640 containing 2 mg/ml Liberase and 0.01 ug/ml DNase I for 1 hours at 37° C. with stirring. After digestion, the mononuclear cells in suspension were collected and centrifuged at 400 g for 10 minutes. After two washings in HBS, the pellet was resuspended in a 40% Percoll solution and layered on the top of a Percoll solution (100%, 60%, 40%, and 30% Percoll in HBSS). The tube was centrifuged at 400 g for 25 minutes, and LPMCs at the 60%-40% Percoll layer interface were collected. The isolated cells were counted and checked for viability using 0.1% trypan blue (viability ranged from 86% to 94%). […]"}, "[2]": {"tested_on": "human LPMCs T cells", "experiment": "ΔΨm in T cells isolated from human intestine lamina propria (LPMC), TMRM with oligomycin (Example 2)", "format": "cell-based", "description": "Objective. […] Model. Lamina propria mononuclear cells (LPMC) in the human intestine are comprised in part by T cells, which mediate physiological and pathological processes including inflammatory bowel disease. LPMCs can be isolated from human tissue biopsies. After isolation […] cells remain viable ex vivo under appropriate culture conditions for periods of time that allow ex vivo experiments. These cells can be used to investigate mechanisms that regulate their mitochondrial function and survival. They contain respiring mitochondria and as such their response to mitochondrial uncouplers such as niclosamide may be assessed. This cellular model is used in conjunction with oligomycin that blocks oxidative phosphorylation and TMRM to monitor ΔΨm as described in Example 1. Cell isolation and culture. Cells are obtained from biopsy specimens of the small or large intestine or rectum of humans from areas of normal gastrointestinal tissue or with moderate to severe Crohn's disease (CD), ulcerative colitis (UC), or celiac disease. For the isolation of lamina propria mononuclear […] specimens are initially washed in Hank's balanced salt solution (HBSS) then are cut into 0.5-cm pieces, and are incubated with stirring in pre-warmed HBSS containing 1 mM DTT at 37° C. for 15 minutes. […] The isolated cells are counted and checked for viability using 0.1% trypan blue (viability ranges from 86% to 94%). […] In addition, anti-CD3 monoclonal antibody conjugated to FITC (excitation at 494 nm with emission detected at 521 nm) is additionally added during incubation with TMRM at 37° C. for 30 minutes. […] LPMC T cells are first defined by their fluorescence emission at 521 nm resulting from labeling with FITC-anti-CD3 antibody. The n fluorescence intensity of TMRM detected at 590 nm in the T cell population is measured. Median fluorescence intensity of the TMRM signal are computed. Ratios of the median fluorescence intensity of each treated sample to the control sample mean are then calculated as a measure of relative decrease in ΔΨm. […]"}},
  "data": [
    {"smiles": "O=C(Nc1ccc([N+](=O)[O-])cc1Cl)c1cc(Cl)ccc1O", "note": "[Niclosamide, 5-chloro-N-(2-chloro-4-nitrophenyl)-2-hydroxybenzamide]", "values": [
      {"measurement": "human LPMCs T cells that produce IFN", "setting": "[1]", "result": "decrease"},
      {"measurement": "human LPMCs T cells that produce IL-17A", "setting": "[1]", "result": "decrease"},
      {"measurement": "human LPMCs T cells that produce TNF", "setting": "[1]", "result": "decrease"},
      {"measurement": "change in ΔΨm in human LPMCs T cells", "setting": "[2]; TMRM, oligomycin, relative to negative controls", "result": "dose-related decrease"},
      {"measurement": "concentrations of niclosamide that decrease ΔΨm (p<0.05)", "setting": "[2]; human LPMCs T cells, relative to negative controls", "result": "≥ 5", "unit": "µM"},
      {"measurement": "mitochondrial uncoupling in lamina propria T cell", "setting": "[2]; niclosamide 5 μM", "result": "more than 50%"}
    ]}
  ]
}
